The term half-life denotes the time in which the quantity being followed falls by half.

Marks after values point to notes of the source that are not given here. Where only a bound is given, the exact number is not on record here.

The values below come from paper PMC7211203 (European Journal of Drug Metabolism and Pharmacokinetics, 2020).

The target of series [1] is T1, CYP3A4 (Homo sapiens, UniProt P08684). Conditions: 18 patients with solid tumors; cited from earlier work.
For the next series, the system named is CYP3A. The following applies: open-label, fixed-sequence study in 16 cancer patients; cited from earlier work.
Series [2] concerns the target T1, CYP3A4. Conditions: 18 patients with solid tumors, before/after design; cited from earlier work.
Series [3] in a line: Safety: adverse events in patients with advanced solid tumors. The class given is in vivo, human.
The target of series [4] is T1, CYP3A4. Conditions: cited from earlier work.
For series [5] the following is noted: cited from earlier work.
For series [6] the following is noted: cited from earlier work. This is another data set of the same source.
For series [7] the following is noted: phase 1 study; cited from earlier work.
For series [8], the system named is CYP3A4. Conditions: ref Eisai, data on file; cited from earlier work.
Setting [9] is: safety analysis set n = 30, treatment phase.

T1 sequence (P08684 whole entry): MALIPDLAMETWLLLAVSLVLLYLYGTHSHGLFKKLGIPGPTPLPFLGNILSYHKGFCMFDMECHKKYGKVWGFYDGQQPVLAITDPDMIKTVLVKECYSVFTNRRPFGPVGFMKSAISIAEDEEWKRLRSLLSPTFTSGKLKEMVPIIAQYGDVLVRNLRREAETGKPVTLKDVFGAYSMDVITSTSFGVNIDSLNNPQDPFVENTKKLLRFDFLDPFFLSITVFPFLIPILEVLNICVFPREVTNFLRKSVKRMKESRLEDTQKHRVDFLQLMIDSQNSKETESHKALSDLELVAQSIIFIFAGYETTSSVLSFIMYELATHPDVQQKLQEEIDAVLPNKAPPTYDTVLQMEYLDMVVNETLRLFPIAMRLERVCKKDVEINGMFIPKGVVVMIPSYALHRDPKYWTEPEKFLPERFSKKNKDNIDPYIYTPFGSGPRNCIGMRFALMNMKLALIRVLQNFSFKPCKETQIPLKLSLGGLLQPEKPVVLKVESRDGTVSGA

As to `COC[C@H](NC(=O)c1cnc(C)s1)C(=O)N[C@@H](COC)C(=O)N[C@@H](Cc1ccccc1)C(=O)[C@@]1(C)CO1` [Oprozomib, oprozomib], the “CYP3A4 inhibition in patients (midazolam)” value on CYP3A4 [1] was “clinically relevant inhibition was not seen”.
As for `CO[C@H]1C[C@@H]2CC[C@@H](C)[C@@](O)(O2)C(=O)C(=O)N2CCCC[C@H]2C(=O)O[C@H]([C@H](C)C[C@@H]2CC[C@@H](OP(C)(C)=O)[C@H](OC)C2)CC(=O)[C@H](C)/C=C(\C)[C@@H](O)[C@@H](OC)C(=O)[C@H](C)C[C@H](C)/C=C/C=C/C=C/1C` [Ridaforolimus, ridaforolimus], in the series with CYP3A, the “Impact on CYP3A (midazolam probe)” value is “minimal inhibitory impact on CYP3A”.
With `CC(C)C[C@H](NC(=O)[C@H](CCc1ccccc1)NC(=O)CN1CCOCC1)C(=O)N[C@@H](Cc1ccccc1)C(=O)N[C@@H](CC(C)C)C(=O)[C@@]1(C)CO1` [carfilzomib], at CYP3A4 [2], the “Effect on the pharmacokinetics of midazolam” value was “No clinically significant effects”.
Consider `COc1cc2nccc(Oc3ccc(NC(=O)NC4CC4)c(Cl)c3)c2cc1C(N)=O` [lenvatinib], for which the “Grade of treatment-related SAEs” value in series [3] (all treatment-related SAEs) is recorded as not above 3 grade. The “New AEs in the extension phase” value in series [3] (extension phase (Eisai, data on file)) is recorded as “No new AEs”. Moreover, the “Patients who died during the treatment phase” value in series [3] (grade 5 TEAE (intestinal obstruction), related to underlying colon cancer) is “One”. Also, the Tolerability entry in series [3] (lenvatinib 24 mg once daily, patients with advanced solid tumors) is on record as “generally well tolerated”. For the same molecule, in series [3] (safety analysis set n = 30), the “Abdominal pain upper: SAEs” value is recorded as 1 (3.3) n (%), the “Abdominal pain: SAEs” value is 2 (6.7) n (%), the “Abdominal pain: TEAEs” value is recorded as 3 (10.0) n (%) and the “Asthenia: SAEs” value is recorded as 1 (3.3) n (%). For the same molecule, in [3] (safety analysis set n = 30), the “Asthenia: TEAEs” value is on record as 3 (10.0) n (%), the “Asthenia: treatment-related AEs” value is recorded as 2 (6.7) n (%), the “Bradycardia: SAEs” value is 1 (3.3) n (%) and the “Cardiac disorders: SAEs” value is 2 (6.7) n (%). In [3] (safety analysis set n = 30), the “Cerebral hemorrhage: SAEs” value is 1 (3.3) n (%), the “Cough: TEAEs” value is on record as 2 (6.7) n (%), the “Diarrhea: TEAEs” value is 7 (23.3) n (%) and the “Diarrhea: treatment-related AEs” value is 3 (10.0) n (%). In addition, in series [3] (safety analysis set n = 30), the “Dysphonia: TEAEs” value is 2 (6.7) n (%), the “Dyspnea: SAEs” value is 1 (3.3) n (%), the “Dyspnea: TEAEs” value is listed as 2 (6.7) n (%) and the “Fatigue: TEAEs” value was 8 (26.7) n (%). Moreover, in series [3] (safety analysis set n = 30), the “Fatigue: treatment-related AEs” value is 5 (16.7) n (%), the “Gastrointestinal disorders: SAEs” value is reported as 4 (13.3) n (%), the “Gastrointestinal disorders: TEAEs” value was 12 (40.0) n (%) and the “Gastrointestinal disorders: treatment-related AEs” value is 6 (20.0) n (%). In addition, in series [3] (safety analysis set n = 30), the “General disorders: SAEs” value is listed as 1 (3.3) n (%), the “General disorders: TEAEs” value is on record as 11 (36.7) n (%), the “General disorders: treatment-related AEs” value was 7 (23.3) n (%) and the “Headache: TEAEs” value was 3 (10.0) n (%). In series [3] (safety analysis set n = 30), the “Headache: treatment-related AEs” value is 2 (6.7) n (%), the “Hypertension: SAEs” value is 3 (10.0) n (%), the “Hypertension: TEAEs” value is on record as 7 (23.3) n (%) and the “Hypertension: treatment-related AEs” value is 6 (20.0) n (%). Also, in series [3] (safety analysis set n = 30), the “Nausea: TEAEs” value is listed as 4 (13.3) n (%), the “Nausea: treatment-related AEs” value is on record as 2 (6.7) n (%), the “Nervous system disorders: SAEs” value is reported as 1 (3.3) n (%) and the “Nervous system disorders: TEAEs” value is given as 5 (16.7) n (%). In series [3] (safety analysis set n = 30), the “Nervous system disorders: treatment-related AEs” value is reported as 2 (6.7) n (%), the “Patient deaths from TEAEs: SAEs” value is reported as 1 (3.33) n (%), the “Pyrexia: SAEs” value is on record as 1 (3.3) n (%) and the “Rectal hemorrhage: SAEs” value was 1 (3.3) n (%). Also, in series [3] (safety analysis set n = 30), the “Respiratory, thoracic, and mediastinal disorders: SAEs” value is 1 (3.3) n (%); the “Respiratory, thoracic, and mediastinal disorders: TEAEs” value is on record as 8 (26.7) n (%); the “Stress cardiomyopathy: SAEs” value is given as 1 (3.3) n (%); the “Vascular disorders: SAEs” value is listed as 3 (10.0) n (%). Further, in [3] (safety analysis set n = 30), the “Vascular disorders: TEAEs” value is listed as 7 (23.3) n (%), the “Vascular disorders: treatment-related AEs” value is recorded as 6 (20.0) n (%), the “Vomiting: TEAEs” value is reported as 2 (6.7) n (%) and the “Vomiting: treatment-related AEs” value is 2 (6.7) n (%). In [3] (setting [9]), the “Patients with any TEAEs: SAEs” value is 10 (33.3) n (%), the “Patients with any TEAEs: TEAEs” value is 26 (86.7) n (%) and the “Patients with any TEAEs: treatment-related AEs” value is 17 (56.7) n (%). In addition, the “Intestinal obstruction: SAEs” value in series [3] (safety analysis set n = 30, this SAE resulted in patient death) is given as 1 (3.3)^c n (%). Also, in [3] (treatment phase, n = 30), the “Patients who discontinued treatment due to a TEAE” value came to 6.7%, the “Patients with SAEs considered treatment related” value was “Four”, the “Patients with TEAEs leading to lenvatinib dose modification” value turned out to be 40% and the “Patients with at least 1 TEAE” value was found to be 86.7%. Also, in series [3] (treatment phase, n = 30), the “Patients with dose reduction” value worked out at 13.3%; the “Patients with lenvatinib treatment interruption” value worked out at 26.7%; the “SAE abdominal pain, patients” value is listed as 6.7%; the “SAE hypertension, patients” value was found to be 10%. For the same molecule, in series [3] (treatment phase, n = 30), the “TEAE diarrhea, patients” value is given as 23.3%; the “TEAE fatigue, patients” value came to 26.7%; the “TEAE hypertension, patients” value was 23.3%; the “Treatment-related TEAE diarrhea, patients” value was determined as 10.0%. In addition, in series [3] (treatment phase, n = 30), the “Treatment-related TEAE fatigue, patients” value amounted to 16.7% and the “Treatment-related TEAE hypertension, patients” value was found to be 20.0%. Moreover, the “Effect on midazolam metabolism in physiologically based pharmacokinetic model” value at CYP3A4 [4] is “negligible effects”. In series [5], the “Interaction with ketoconazole (inhibitor of CYP3A4)” value is reported as “not clinically significant”. For the same molecule, in series [6] (after dosing), the tmax is 1 to 4 h. For the same molecule, the half-life in series [6] is on record as 28 h. Besides, in series [7], the “Pharmacokinetic drug–drug interactions in combination with everolimus” value is listed as “no significant pharmacokinetic drug–drug interactions”. Further, in the series on CYP3A4 [8], the “Action on CYP3A4” value was “weak inducer and time-dependent inhibitor of CYP3A4”.
